For one compound, pKa results are on record in PMC10385664, “Projection of Target Drug Particle Size in Oral Formulations Using the Refined Developability Classification System (rDCS)” (Pharmaceutics, 2023).

One may read the pKa as the negative logarithm of the acid dissociation constant.

This data set is described as follows: pKa by Fast UV spectrometric titration (SiriusT3). The format is physicochemical. The conditions noted are these: water/methanol mixtures; Yasuda–Shedlovsky extrapolation from water/methanol titrations, 25 °C; low absorbance, value to be treated with caution. From the text:
A high-throughput spectrometric screening assay (Fast UV method) using the SiriusT3 (Pion Inc., Billerica, MA, USA) was applied. Samples were titrated under varying water/methanol ratios and apparent pKa values were extrapolated using the Yasuda–Shedlovsky extrapolation. The experimental details are provided in Supplementary Materials. Measured pKa values are presented as means (±SD) and were compared to literature values as well as in silico predictions using the software ADMET Predictor version 9 (Simulations Plus Inc., Lancaster, CA, USA) and ACD/Labs Release 2021.1.2 (Advanced Chemistry Development Inc., Toronto, ON, Canada). […]
r0 2 ∙ ρ ∙IDR∙Dose ൌ DF ∙ PefRsi ∙mdissolved (r0 < 30 μm, hparticle = r0) (S39) […]
spectrometric screening assay (Fast UV method) using an automated titrator system with an incorporated UV‐Vis spectrometer (SiriusT3, Pion Inc., Billerica, MA, USA). […] The pKa values were determined from three titrations with different water/methanol ratios and extrapolation of apparent pKa values in the presence of co‐solvents using the Yasuda‐Shedlovsky extrapolation. Measured pKa values are presented as means with standard deviation and were compared to literature va lues and predictions using the software ADMET Predictor

Consider `Cc1ncc(OC[C@@]2(c3cccc(F)c3)C[C@H]2C(=O)Nc2ccc(F)cn2)c(C)n1` [Lemborexant, lemborexant], for which the pKa was 2.18 ± 0.05.
